The values below come from patent publication US12465609B2, “Methods of treating patients suffering from a disease condition or disorder that is associated with an increased glutamate level” (veriNOS operations GmbH, priority 2022, dated 2025).

The subject of data set [1] is extracellular brain glutamate level. The experiment in a line: Brain microdialysis, extracellular cerebral glutamate levels in TBI patients. Format: in vivo, human. The procedure: To monitor the metabolic condition of the patients, extracellular brain glutamate and lactate levels were measured. In more detail, the extracellular intracerebral glutamate and lactate levels measured here is the glutamate or lactate level in brain extracellular fluid (ECF). […] The measurements of the glutamate and lactate levels was carried out using established brain microdialysis (MD) methodology as described, for example, by Chamoun et al, example. Role of extracellular glutamate measured by cerebral microdialysis in severe traumatic brain injury. J Neurosurg. 2010 September; 113(3): 564-570.
The microdialysis (MD) equipment was obtained from M Dialysis AB, Stockholm, Sweden, see www.mdialysis.com. The following equipment was used. • Cerebral MD catheters: CMA 70 • CMA 70 bolt catheter • CMA 71 high cut-off cerebral catheter • Pumps: CMA106=fixed flow rate, CMA107=flexible flow rate • Perfusion solution: Cerebral: Perfusion fluid CNS • Analyzers: CMA 600, ISCUS, ISCUSflex Time Point of MD Catheter Insertion • Aim: Obtain stable baseline values before infusing study drug • Ideal: By 14 hours after TBI or 4 hours before study drug infusion to allow for tissue adaptation, usually lasting 1-4 hours • Compromise: As soon as possible, within 4 hours after beginning study drug infusion Site of Cerebral MD Catheter Insertion • Aim: Monitor metabolic changes close to structural damage visible on routine CT scan • Contusion: Close to the contusion • Mixed lesions: Predominantly injured hemisphere • With bolt system: Right or left frontal lobe • Without bolt system: Right or left frontal/temporal/parietal area • If possible cerebral MD catheter should be placed ipsilateral to the ICP probe • Special care should be taken to avoid inducing injury to pre- and postcentral cortex • The position of the MD probe and the position of the ICP probe in the eCRF should be indicated.
The cerebral glutamate and lactate levels were recorded every 1 h up to 5 days after the start of the infusion. Absolute values were be summarized per treatment group and for each time point by means of descriptive statistics. The 95% confidence intervals for the mean were calculated (normal approximation).
For the analysis of the metabolic state, it was considered that under normal (physiological) conditions glutamate is maintained at low levels (micromolar) in the extracellular space (<2 μmol/L) and in plasma (50-100 μmol/L) to avoid excessive glutamate receptor activation. Within the different intracellular compartments glutamate is present in higher amounts (5-15 millimolar). In brain microdialysis, glutamate levels exceeding 10 μmol/L are considered elevated, higher glutamate levels are associated with worse outcome. In addition to the absolute levels, dynamic changes are also important in interpreting underlying pathology. In brain microdialysis and blood, lactate levels exceeding 2.5 millimol/L are considered pathologically elevated, reflecting insufficient metabolic/energetic stability which is further aggravated by insufficient oxygen supply.

Data set [2] can be described thus: Safety and adverse event analyses, NOSTRA III. Format: in vivo. The method, then: Safety analyses was performed using standard descriptive methods.
The total number of treatment-emergent adverse events (TEAE) and the total number of patients with TEAEs, the total number of TEAEs related to the study drug (certain, probable, possible), the total number of patients with TEAEs related to the study drug, the total number of TEAEs and the total number of patients with serious TEAEs, the total number of patients with TEAEs leading to discontinuation of study treatment and the total number of patients with TEAEs leading to death were summarised by treatment arm.

The structures appear in SMILES notation. Where only a bound is given, the exact number is not on record here.

Consider `C[C@H](O)[C@H](O)C1CNc2nc(N)nc(N)c2N1` (mixture of isomers) [Ronopterin, 4-Amino-(6R,S)-5,6,7,8-tetrahydro-L-biopterin], for which the “extracellular cerebral glutamate level” value in data set [1] (18 to 39 years, infusion >12 hours after TBI, majority of patients, essentially the same as placebo (FIG. 5E)) was under 10 µmol/L; in data set [1] (18 to 39 years, infusion ≤12 h after TBI, all patients (FIG. 5B)), under 10 µmol/L; in data set [1] (40 to 60 years, infusion >12 hours after TBI, majority of the patients (FIG. 6B)), under 10 µmol/L; in data set [1] (40 to 60 years, infusion ≤12 h after TBI, no placebo group, not all patients <10 μmol/L (FIG. 6A)), “partially lowered brain glutamate levels”; in data set [1] (patients aged 18 to 39 years, all times to infusion, all patients, up to 108 hours (FIG. 4B)), under 10 µmol/L; in data set [1] (patients aged 40 to 60 years, all times to infusion, majority of patients (FIG. 4E)), under 10 µmol/L. Also, the “extracellular brain glutamate levels after infusion” value in data set [1] (TBI patients, within 12 hours after start of the administration) is “less than 10 μmol/L”. Also, in data set [1] (inferred from Example 4), the “passage of the human blood brain barrier” value is “passes the human blood brain barrier”. The “number of renal AEs” value in data set [2] (Ronopterin:placebo 11:3) is 11. Moreover, in data set [2] (no significant new safety findings), the “tolerability of study treatment” value was “well-tolerated”. The “proportion of patients with ICP increased (AE)” value in data set [2] (placebo 11.7%) worked out at 23.9%. The “number of patients with ICP increased (AE)” value in data set [2] (placebo 13) is 27 patients. Further, the “number of adverse events (AEs) and serious adverse events (SAEs) compared to the placebo groups” value in data set [2] (related AE/SAEs low and comparable) was “slightly higher number”.
